Like-named read-outs stand apart in the source and are kept apart here. *1 amine or outer side, *2 acyl side, *3 side chain or, on linkers, in order; H or OH if unused. Where a SMILES comes first, the peptide text is derived from it. Bridges are numbered along the chain shown (N, C = ends). [ ]: non-standard residue; d: D form. The star is where a group is joined. X5 = NC(=O)[C@H](CCCCNC(=O)CN1CCN(CC(=O)O)CCN(CC(=O)O)CCN(CC(=O)O)CC1)NC(=O)CCC(=O)NCCCOCCOCCOCCCN*; NH(1-deoxy-D-glucityl) = OC[C@@H](O)[C@@H](O)[C@H](O)[C@@H](O)CN*; DOTA = O=C(O)CN1CCN(CC(=O)O)CCN(CC(=O)*)CCN(CC(=O)O)CC1; Trp(5-Cl) = N[C@@H](Cc1c[nH]c2ccc(Cl)cc12)C(=O)O; Pyridine(2,6-diCH2) = c1cc(C[*:1])nc(C[*:2])c1; Trp(7-aza) = N[C@@H](Cc1c[nH]c2ncccc12)C(=O)O; Pro(4R-NH2) = N[C@H]1CN[C@H](C(=O)O)C1; Thz(5,5-Me2) = CC1(C)SCN[C@@H]1C(=O)O; mXylylene = c1cc(C[*:1])cc(C[*:2])c1; Bta = N[C@@H](Cc1csc2ccccc12)C(=O)O; Glutaryl = O=C(CCCC(=O)[*:2])[*:1]; Hyp = O=C(O)[C@@H]1C[C@@H](O)CN1; X1 = O=C(CN1CCC(N[*:1])CC1)[*:2]; Api = NC1(C(=O)O)CCNCC1; Thp = NC1(C(=O)O)CCOCC1; Aib = CC(C)(N)C(=O)O
Target: T1, GIPR (CHO-K1-hGIPR cells) (Homo sapiens, UniProt P48546)
T1 construct: host or cells: CHO-K1
T1 sequence (P48546 22-466): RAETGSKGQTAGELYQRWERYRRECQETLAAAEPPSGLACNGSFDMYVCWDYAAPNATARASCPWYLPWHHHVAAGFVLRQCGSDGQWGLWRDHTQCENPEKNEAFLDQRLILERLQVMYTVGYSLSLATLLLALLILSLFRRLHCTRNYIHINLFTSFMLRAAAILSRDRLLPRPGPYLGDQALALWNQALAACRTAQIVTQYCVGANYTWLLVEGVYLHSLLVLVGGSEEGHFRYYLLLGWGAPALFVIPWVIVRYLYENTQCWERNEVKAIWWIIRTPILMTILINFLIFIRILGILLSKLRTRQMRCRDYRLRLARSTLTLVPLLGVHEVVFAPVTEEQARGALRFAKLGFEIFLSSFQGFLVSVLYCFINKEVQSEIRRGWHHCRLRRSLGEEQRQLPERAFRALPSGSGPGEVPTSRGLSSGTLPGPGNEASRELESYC
Experiment: FACS binding assay
Details: read-out: pIC50 Category (converted)
Description: In order to determine binding of compounds according to the present invention to GIPR-expressing cells, a FACS binding assay was established.
CHO-K1-hGIPR cells (GenScript Biotech, #M00486) were cultured in Ham's F12 medium (Sigma-Aldrich, #N4888) including 10% fetal calf serum (FCS), 2 mM L-glutamine, 100 U/mL penicillin, 100 μg/mL streptomycin, 200 μg/mL Zeocin and 100 μg/mL HygromycinB. Cells were detached with Accutase (Biolegend, #BLD-423201) and washed in FACS buffer (PBS including 1% FCS). Cells were diluted in FACS buffer to a final concentration of 500.000 cells per mL. 200 μL of the cell suspension were transferred to a u-shaped non-binding 96-well plate (Greiner) and cells were washed in ice-cold FACS buffer.
Cells were washed twice in FACS buffer. An additional incubation step with 1 μg/mL APC-Streptavidin (Miltenyi; #130-106-791) in 50 μL FACS buffer for 30 min on ice was performed followed by two washes with FACS buffer.
Cells were analyzed in an Attune NxT flow cytometer. Median fluorescence intensities (MFI) of the APC/Cy5-channel were calculated by Attune NxT software. MFI values were plotted against peptide concentration and four parameter logistic (4PL) curve fitting and EC50/pEC50 or IC50/pIC50 calculations were performed using ActivityBase software.

[1] = competition with 20 nM GIP-057, 4° C., 1 hour
[2] = competition with 20 nM GIP-057, 4° C. for 1 hour

Structure (SMILES)	IC50 [1]	IC50 [2]
CC[C@H](C)[C@@H]1NC(=O)[C@H](CC(C)C)NC(=O)C2(CCN(C(=O)CN3CCN(CC(=O)O)CCN(CC(=O)O)CCN(CC(=O)O)CC3)CC2)NC(=O)[C@@H](NC(=O)[C@@H](CC(C)C)NC(=O)[C@H](CCC(=O)O)NC(=O)[C@@H]2C[C@@H](N)CN2C(=O)[C@H](Cc2c[nH]c3ccc(Cl)cc23)NC(=O)[C@H](Cc2c[nH]c3ccccc23)NC(=O)[C@H](CC(=O)O)NC(=O)CN2CCC(NC(=O)CCCC(=O)NC[C@H](O)[C@@H](O)[C@H](O)[C@H](O)CO)CC2)CSCc2cccc(n2)CSC[C@@H](C(=O)N[C@H](CCC(=O)NC[C@H](O)[C@@H](O)[C@H](O)[C@H](O)CO)C(N)=O)NC1=O [GIP-033, AGLU-Glutar-APAc-Asp-Trp-5Clw-Hyp-Glu-leu-[Cys(2Lut)-Apc(DOTA)-Leu-Ile-Cys]-glu(AGLU)-NH2] ({NH(1-deoxy-D-glucityl)-Glutaryl}-[X1]DW[Trp(5-Cl)][Pro(4R-NH2)]E[dL]C[Api](DOTA)LIC[dE](NH(1-deoxy-D-glucityl))-NH2; linker 8-12 via Pyridine(2,6-diCH2))	< 0.01 µM	
CC[C@H](C)[C@@H]1NC(=O)[C@H](CC(C)C)NC(=O)C2(CCOCC2)NC(=O)[C@@H](NC(=O)[C@@H](CC(C)C)NC(=O)[C@H](CCC(=O)O)NC(=O)[C@@H]2C[C@@H](O)CN2C(=O)[C@H](Cc2c[nH]c3ncccc23)NC(=O)[C@H](Cc2c[nH]c3ccccc23)NC(=O)[C@H](CC(=O)O)NC(C)=O)CSCc2cccc(n2)CSC[C@@H](C(N)=O)NC1=O [GIP-267, Ac-Asp-Trp-7Nw-Hyp-Glu-leu-[Cys(2Lut)-Thp-Leu-Ile-Cys]-NH2] (Ac-DW[Trp(7-aza)][Hyp]E[dL]C[Thp]LIC-NH2; linker 7-11 via Pyridine(2,6-diCH2))		0.01 to 0.0794 µM
CC[C@H](C)[C@@H]1NC(=O)[C@H](CC(C)C)NC(=O)C2(CCOCC2)NC(=O)[C@@H](NC(=O)[C@@H](CC(C)C)NC(=O)[C@H](CCC(N)=O)NC(=O)[C@@H]2C[C@@H](O)CN2C(=O)[C@H](Cc2c[nH]c3ccc(Cl)cc23)NC(=O)[C@H](Cc2c[nH]c3ccccc23)NC(=O)[C@H](CC(=O)O)NC(C)=O)CSCc2cccc(n2)CSC[C@@H](C(N)=O)NC1=O [GIP-193, Ac-Asp-Trp-5Clw-Hyp-Gln-leu-[Cys(2Lut)-Thp-Leu-Ile-Cys]-NH2] (Ac-DW[Trp(5-Cl)][Hyp]Q[dL]C[Thp]LIC-NH2; linker 7-11 via Pyridine(2,6-diCH2))	< 0.01 µM	
CC[C@H](C)[C@@H]1NC(=O)[C@H](CC(C)C)NC(=O)C2(CCOCC2)NC(=O)[C@@H](NC(=O)[C@@H](CC(C)C)NC(=O)[C@H](CCC(=O)O)NC(=O)[C@H]2N(C(=O)[C@H](Cc3c[nH]c4ccc(Cl)cc34)NC(=O)[C@H](Cc3c[nH]c4ccccc34)NC(=O)[C@H](CC(=O)O)NC(C)=O)CSC2(C)C)CSCc2cccc(n2)CSC[C@@H](C(N)=O)NC1=O [GIP-215, Ac-Asp-Trp-5Clw-Dtc-Glu-leu-[Cys(2Lut)-Thp-Leu-Ile-Cys]-NH2] (Ac-DW[Trp(5-Cl)][Thz(5,5-Me2)]E[dL]C[Thp]LIC-NH2; linker 7-11 via Pyridine(2,6-diCH2))	< 0.01 µM	
CC[C@H](C)[C@@H]1NC(=O)[C@H](CC(C)C)NC(=O)C(C)(C)NC(=O)[C@@H](NC(=O)[C@H](CC(C)C)NC(=O)[C@H](CCC(=O)O)NC(=O)[C@@H]2CCCN2C(=O)[C@H](Cc2csc3ccccc23)NC(=O)[C@H](Cc2c[nH]c3ccccc23)NC(=O)[C@H](CC(=O)O)NC(C)=O)CSCc2cccc(c2)CSC[C@@H](C(=O)NCCCOCCOCCOCCCNC(=O)CCC(=O)N[C@@H](CCCCNC(=O)CN2CCN(CC(=O)O)CCN(CC(=O)O)CCN(CC(=O)O)CC2)C(N)=O)NC1=O [GIP-075, Ac-Asp-Trp-Bta-Pro-Glu-Leu-[Cys(3MeBn)-Aib-Leu-Ile-Cys]-Ttds-Lys(DOTA)-NH2] (Ac-DW[Bta]PELC[Aib]LIC-X5; linker 7-11 via mXylylene)	< 0.01 µM	
CC[C@H](C)[C@@H]1NC(=O)[C@H](CC(C)C)NC(=O)[C@H](C)NC(=O)[C@@H](NC(=O)[C@H](CC(C)C)NC(=O)[C@H](CCC(=O)O)NC(=O)[C@@H]2CCCN2C(=O)[C@H](Cc2c[nH]c3ccccc23)NC(=O)[C@H](Cc2c[nH]c3ccccc23)NC(C)=O)CSCc2cccc(c2)CSC[C@@H](C(N)=O)NC1=O [GIP-324, Ac-Trp-Trp-Pro-Glu-Leu-[Cys(3MeBn)-Ala-Leu-Ile-Cys]-NH2] (Ac-WWPELCALIC-NH2; linker 6-10 via mXylylene)		> 1 µM
